Key:
[1] = test system: Vibrio campbellii BAA 1119 (AI-2); test: microbe, parasite or virus in culture; type: cell-based; details: for EC50: Vibrio campbellii, BAA1119, 16 h, read-out: EC50 (concentration that halved the communication); for SI (selectivity index): ratio IC50 (viability) / EC50 (communication), BAA 1119
From the text: (§1) Commercially available strains of Vibrio campbellii were used to evaluate the ability of flavonoids and their derivatives to inhibit bacterial quorum sensing. V. campbellii uses two types of autoinducing molecules for its communication—N-acyl-homoserine lactones (Autoinducer I, AI-1, strain BAA 1118) and furanosyl borate diester (Autoinducer II, AI-2, strain BAA 1119). AI-1-based communication is mainly used by Gram-negative bacteria, while AI-2-based communication is found in both Gram-negative and Gram-positive bacteria. The mutant strains of V. campbellii BA1118 and BA1119 respond only to AI-1 or AI-2, respectively, and the response to the respective AI concentration is measured as luminescence. The higher the AI concentration, the higher the luminescence signal. The ability to inhibit the communication was expressed as the selectivity index (SI), calculated as the ratio between the concentration that halved the viability (IC50) and the concentration that halved the communication (EC50) of the respective V. campbellii strains. […] The antimicrobial activity of quorum-sensing inhibitors is undesirable because it creates a selection pressure and can lead to the development of resistance.
(§2) The inhibition of bacterial extracellular communication was measured using Vibrio campbellii strains BAA-1118 and BAA-1119. The experiment was performed according to the methods of Szemerédi et al.. Briefly, 5 × 10^5 CFU/mL (colony-forming units per milliliter) were seeded in an Autoinducer Bioassay medium (NaCl 17.5 g/L, MgSO4 12.3 g/L, Casamino acids 2 g/L, 10 mL of 1 M potassium phosphate pH 7.0, 10 mL of 0.1 M L-arginine, and 10 mL of glycerol in 970 mL of deionized water) in a 96-well plate. Immediately, the tested compounds were added at the final concentration of 0.2–200 µM and luminescence was recorded for 16 h by a SpectraMax i3x microplate reader set at 30 °C, an integration time of 10,000 ms, and shaking for 60 s before measurement. […] The selectivity index was calculated as the […]. The EC50 and IC50 were calculated using GraphPad Prism software version 5.00 for Windows with a nonlinear regression curve fit.

[2] = test system: Vibrio campbellii BAA 1118 (AI-1); test: microbe, parasite or virus in culture; type: cell-based; details: for EC50: Vibrio campbellii, BAA1118, 16 h, read-out: EC50 (concentration that halved the communication); for SI (selectivity index): ratio IC50 (viability) / EC50 (communication), BAA 1118
From the text: as §1, §2

[3] = DPPH radical scavenging; details: 1,1-diphenyl-2-picrylhydrazyl radical scavenging
Description: (§3) To further elucidate how halogenation affects other properties of the flavonoids studied, their 2,2′-azino-bis-(3-ethylbenzothiazoline-6-sulfonic acid) cation (ABTS) and 1,1-diphenyl-2-picrylhydrazyl (DPPH) radical scavenging, the Folin–Ciocalteu reagent (FCR) reducing, the ferric-reducing antioxidant power (FRAP), and the anti-lipoperoxidation activities were evaluated by in vitro methods (Supplementary Information Tables S1 and S2).
(§4) The antiradical activity was evaluated by the ability to scavenge ABTS and DPPH radicals. Reducing capacity was assessed by the ability to reduce the Folin–Ciocalteu reagent (FCR) and ferric ions (FRAP). The ability to inhibit lipid peroxidation of pooled male rat microsomal liver membranes induced by tert-butyl hydroperoxide was also evaluated and the results were expressed as IC50 values.

[4] = test system: doxorubicin-resistant human ovarian carcinoma (HOC/DOX); test: Cytotoxicity (resazurin assay, 72 h); type: cell-based; details: for IC50: Homo sapiens, 72 h, resazurin assay; for SI (selectivity index): ratio IC50 for HDF / IC50 for HOC/DOX
Description: (§5) The cytotoxicity of flavonoids and their halogenated derivatives was determined as their ability to decrease the viability of human dermal fibroblasts (HDF) and doxorubicin-resistant human ovarian carcinomas (HOC/DOX). Both cell lines were cultivated in Dulbecco’s Modified Eagle’s Medium supplemented with fetal bovine serum (FBS, 10% v/v) and 1 × antibiotic antimycotic solution and incubated at 37 °C in the atmosphere of 5% CO2. The experiment was performed according to a previously published method. Briefly, 1 × 10^5 cells/mL were seeded into a 96-well plate (100 µL/well). After 24 h, flavonoids and their derivatives were administered at the concentration range of 31.25–500 µM. After 72 h, the viability was determined by resazurin assay (0.03 mg/mL of resazurin in PBS), where the fluorescence was measured after 2 h of incubation by the SpectraMax i3x microplate reader at a wavelength of 560/590 nm (excitation/emission). The concentration inhibiting half of the population (IC50) was determined using nonlinear regression in GraphPad Prism software. The selectivity index was calculated as the ratio between the IC50 for HDF (control, non-cancerous cells) and the IC50 for HOC/DOX (cancer cells).

[5] = test system: human dermal fibroblasts (HDF); test: Cytotoxicity (resazurin assay, 72 h); type: cell-based; details: Fibroblast
Description: as §5

[6] = test system: lipopolysaccharide-stimulated macrophages (RAW 264.7); test: Inhibition of nitric oxide production (Griess reagent); type: cell-based, murine; details: Mus musculus, RAW264.7; LPS 100 ng/mL, 24 h; highest tested concentration 100 µM; read-out: NO Production IC50
Description: The anti-inflammatory activity of the tested flavonolignans was determined as the ability to reduce nitric oxide production by murine macrophages (RAW 264.7) stimulated by bacterial lipopolysaccharides, as previously described. […] For the experiment, 1 × 10^6 cells/mL was seeded into the 96-well plate (100 µL/well). […] After 24 h, the medium was mixed with Griess reagent (0.04 g/mL), prepared freshly in deionized water at the ratio of 1:1. The absorbance was measured after 15 min at 540 nm by the SpectraMax i3x microplate reader. Cell viability was determined by resazurin assay.

[7] = Ferric reducing antioxidant power (FRAP); details: Fe2+ equivalents
Description: as §3, §4

[8] = test system: Vibrio campbellii BAA 1118 (AI-1); test: Viability of the quorum-sensing reporter culture (resazurin assay), AI-1 strain; type: cell-based; details: BAA1118, V. campbellii BAA 1118, resazurin assay, read-out: IC50 (concentration that halved the viability)
From the text: as §1, §2

[9] = Folin-Ciocalteu reagent reduction; details: gallic acid equivalents
Description: as §3, §4

[10] = test system: pooled male rat microsomal liver membranes; test: Inhibition of lipid peroxidation induced by tert-butyl hydroperoxide; type: biochemical; details: male rat microsomes, read-out: ILP IC50
Description: as §4

[11] = test system: Vibrio campbellii BAA 1119 (AI-2); test: Viability of the quorum-sensing reporter culture (resazurin assay), AI-2 strain; type: cell-based; details: BAA1119, V. campbellii BAA 1119, resazurin assay, read-out: IC50 (concentration that halved the viability)
From the text: as §1, §2

[12] = ABTS cation radical scavenging; details: vitamin C equivalent antioxidant capacity
Description: as §3, §4

Structure (SMILES)	EC50 [1] [µM]	SI (selectivity index) [1]	EC50 [2] [µM]	SI (selectivity index) [2]	IC50 [3] [µM]	IC50 [4] [µM]	SI (selectivity index) [4]	IC50 [5] [µM]	IC50 [6] [µM]	FRAP [Fe2+eq] [7] [Fe2+eq]	IC50 [8] [µM]	FCR [GAE] [9] [GAE]	IC50 [10] [µM]	IC50 [11] [µM]	ABTS [CEAC] [12] [CEAC]
COc1cc([C@H]2Oc3cc([C@H]4Oc5cc(O)cc(O)c5C(=O)[C@@H]4O)ccc3O[C@@H]2CO)ccc1O [3a, silybin A, reference compound]	17.1 ± 0.5	7.0 ± 0.4	97.1 ± 1	1.3 ± 0.1	322	236	0.46	109	53.9 ± 4.9	0.071 ± 0.003	131 ± 3.7	1.35 ± 0.06	213	120 ± 3.1	0.50 ± 0.03
COc1cc([C@@H]2Oc3cc([C@H]4Oc5cc(O)cc(O)c5C(=O)[C@@H]4O)ccc3O[C@H]2CO)ccc1O [3b, silybin B, reference compound]	22.3 ± 0.5	6.8 ± 0.2	121.5 ± 0.6	0.96 ± 0.01	259	202	0.41	83.3 ± 5.4	55.6 ± 5.5	0.078 ± 0.004	116.6 ± 0.9	1.39 ± 0.08	291	152 ± 2.4	0.55 ± 0.05
O=C1c2c(O)cc(O)cc2OC(c2ccc(O)c(O)c2)C1O (stereo not drawn) [compound 1, taxifolin, reference compound]	7.3 ± 0.3	11.0 ± 0.6	63.7 ± 2.7	1.1 ± 0.1	2.91	183	0.51	93.8 ± 3.7	52.4 ± 1.2	1.45 ± 0.07	71 ± 3	1.92 ± 0.05	16.3 ± 1.1	80 ± 1.7	1.08 ± 0.02
O=c1c(O)c(-c2ccc(O)c(O)c2)oc2cc(O)cc(O)c12 [compound 2, quercetin, reference compound]	4.8 ± 0.2	2.2 ± 0.2	15.9 ± 0.5	1.5 ± 0.1	2.06	182	0.30	54.8 ± 2.7	14.6 ± 2.1	2.84 ± 0.02	24.5 ± 0.8	2.33 ± 0.05	39 ± 2.9	10.6 ± 0.5	2.87 ± 0.23
